Experimental data from ChEMBL document CHEMBL3046388, “Antifungal and insecticidal activities of daphnodorins A, B and C” (1987).

Experiments:
Format in all cases: functional
Puccinia recondita = experiment: Antifungal activity against Puccinia recondita inoculated in compound treated Triticum aestivum leaves assessed as protective value at 27 degC at 500 ppm by spraying method
Pyricularia oryzae [1] = experiment: Antifungal activity against Magnaporthe oryzae inoculated in compound treated Oryza sativa leaves assessed as protective value at 27 degC at 10 ppm by spraying method
Pyricularia oryzae [2] = experiment: Antifungal activity against Magnaporthe oryzae inoculated in compound treated Oryza sativa leaves assessed as protective value at 27 degC at 50 ppm by spraying method
Phytophthora infestans = experiment: Antifungal activity against Phytophthora infestans inoculated in compound treated Lycopersicon esculentum MILL, leaves assessed as protective value at 27 degC at 500 ppm by spraying method
Blumeria graminis = experiment: Antifungal activity against Blumeria graminis inoculated in compound treated Triticum aestivum leaves assessed as protective value at 27 degC at 500 ppm by spraying method
Rhizoctonia solani = experiment: Antifungal activity against Rhizoctonia solani inoculated in compound treated Oryza sativa leaves assessed as protective value at 27 degC at 500 ppm by spraying method
Pyricularia oryzae [3] = experiment: Antifungal activity against Magnaporthe oryzae inoculated in compound treated Oryza sativa leaves assessed as protective value at 27 degC at 500 ppm by spraying method
Spodoptera litura = experiment: Insecticidal activity against third-instar larvae Spodoptera litura in compound treated cabbage leaves assessed as mortality at 500 ppm at 25 to 27 degC measured after 5 days by leaf dip method; settings: foliar, 120 h
Botrytis cinerea = experiment: Antifungal activity against Botryotinia fuckeliana inoculated in compound treated Pisum sativum var. arvense POIL. leaves assessed as protective value at 27 degC at 500 ppm by spraying method
Nilaparvata lugens = experiment: Insecticidal activity against third-instar larvae of Nilaparvata lugens (brown planthopper) in compound treated Oriza sativa stem assessed as mortality at 500 ppm at 25 to 27 degC measured after 5 days by stem dip method; settings: 120 h
Pyricularia oryzae [4] = experiment: Antifungal activity against Magnaporthe oryzae inoculated in compound treated Oryza sativa leaves assessed as residual effect on leaves at 27 degC at 500 ppm by spraying method
Callosobruchus chinensis = experiment: Insecticidal activity against adult Callosobruchus chinensis in compound treated ingenmame leaves assessed as mortality at 500 ppm at 25 to 27 degC measured after 5 days; settings: 120 h
Tetranychus urticae = experiment: Insecticidal activity against adult and eggs of Tetranychus urticae (two-spotted spider mite) assessed as mortality at 500 ppm sprayed onto organism at 25 to 27 degC measured after 5 days; settings: 120 h
Pyricularia oryzae [5] = experiment: Antifungal activity against Magnaporthe oryzae inoculated in compound treated Oryza sativa leaves assessed as protective value at 27 degC at 200 ppm by spraying method

SMILES | Activity (Puccinia recondita) | Activity (Pyricularia oryzae [1]) | Activity (Pyricularia oryzae [2]) | Activity (Phytophthora infestans) | Activity (Blumeria graminis) | Activity (Rhizoctonia solani) | Activity (Pyricularia oryzae [3]) | mortality at 500 ppm (Spodoptera litura) | Activity (Botrytis cinerea) | mortality at 500 ppm (Nilaparvata lugens) | Activity (Pyricularia oryzae [4]) | mortality at 500 ppm (Callosobruchus chinensis) | mortality at 500 ppm (Tetranychus urticae) | Activity (Pyricularia oryzae [5])
O=C(c1c(O)cc(O)cc1O)c1c(-c2ccc(O)cc2)oc2cc(O)c3c(c12)O[C@H](c1ccc(O)cc1)CC3 [DAPHNODORIN A] | 0% | 58% | 83% | 0% | 0% | 0% | 95% | 20% | 0% | 10% | 48% | 0% | 30% | 93%
O=C(c1c(O)cc(O)cc1O)c1c(-c2ccc(O)cc2)oc2cc(O)c3c(c12)O[C@H](c1ccc(O)cc1)[C@@H](O)C3 [DAPHNODORIN B] | 0% |  |  | 0% | 0% | 0% | 79% | 30% | 0% | 0% |  | 30% | 45% | 
O=C1c2c(O)cc(O)cc2O[C@]12c1c(cc(O)c3c1O[C@H](c1ccc(O)cc1)CC3)O[C@H]2c1ccc(O)cc1 [DAPHNODORIN C] | 0% | 40% | 69% | 0% | 0% | 0% | 90% | 10% | 0% | 0% | 40% | 10% | 11% | 89%
